This is an account of results in paper PMC8746493, “Co-Inhibition of P-gp and Hsp90 by an Isatin-Derived Compound Contributes to the Increase of the Chemosensitivity of MCF7/ADR-Resistant Cells to Doxorubicin” (Molecules, 2021).

In the test the target is T1, Hsp90α (Homo sapiens, UniProt P07900).
T1 construct: gene HSP90AA1; full length protein
Put plainly: SPR (Biacore […], immobilized recombinant Hsp90α). It counts as binding.

By Kd is commonly meant the constant that tells how readily two partners part at equilibrium. Take `O=C(CN1C(=O)NC(c2ccccc2)(c2ccccc2)C1=O)NN=C1C(=O)Nc2ccc(F)cc21` [compound 16, HAA2021]: the equilibrium dissociation constant (Kd) worked out at 41.2 ± 2.1 nM.
